Measurements as given in ChEMBL document CHEMBL1151819, “Unprecedented hemiketal cembranolides with anti-inflammatory activity from the soft coral Lobophytum durum” (2009).
Activity calls are given as the source filed them. The rule behind the calls is not given here.

How the values were obtained:
[1] = test system: RAW264.7; test: Antiinflammatory activity in LPS-stimulated mouse RAW264.7 cells assessed as reduction in COX2 protein expression at 10 uM by immunoblot analysis; assay type: functional; set-up: scale not given: the % may be the effect or the level left
[2] = test system: Salmonella enteritidis; test: Antibacterial activity against Salmonella enteritidis ATCC 13076 at 100 ug/disk; assay type: functional, organism-based; details: Salmonella enterica subsp. enterica serovar Enteritidis
[3] = test system: RAW264.7; test: Antiinflammatory activity in LPS-stimulated mouse RAW264.7 cells assessed as reduction in iNOS protein expression at 10 uM by immunoblot analysis relative to control; assay type: functional; set-up: scale not given: the % may be the effect or the level left
[4] = test system: Human betaherpesvirus 5; test: Inhibition of HCMV endonuclease at 1 mg/mL

| Structure (SMILES) | Activity [1] | Activity [2] | Activity [3] [%] | Activity [4] |
| --- | --- | --- | --- | --- |
| C=C1C(=O)O[C@@H]2C[C@H]1[C@]1(O)C/C(C)=C/CC/C(C)=C/CC[C@@]2(CO)O1 (relative stereo) [DURUMHEMIKETALOLIDE A] | 66.7% | inactive | 11 | inactive |
| C=C1C(=O)O[C@H]2C[C@H]1[C@]1(O)C/C(C)=C/CC/C(C)=C/CC[C@@]2(COC(C)=O)O1 (relative stereo) [DURUMHEMIKETALOLIDE B] | inactive | inactive | 6.4 | inactive |
| C=C1C(=O)O[C@H]2C[C@H]1[C@]1(O)C/C(C)=C/CC/C(C)=C/CC[C@]2(COC(C)=O)O1 (relative stereo) [DURUMHEMIKETALOLIDE C] | 34.7% | inactive | 0 | inactive |
| O=C(/C=C/c1ccc(O)c(O)c1)OCCc1ccccc1 [CAFFEIC ACID PHENETHYL ESTER] | 70.2% | – | 1.5 | – |
